The source of these data is patent EP4656640A1, “IRAK4 DEGRADER AND USE THEREOF” (Shanghai Qilu Pharmaceutical Research and Development …, priority 2023, dated 2024).

The assay addresses T1, IRAK4 (Homo sapiens, UniProt Q9NWZ3).
T1 sequence (Q9NWZ3 1-460): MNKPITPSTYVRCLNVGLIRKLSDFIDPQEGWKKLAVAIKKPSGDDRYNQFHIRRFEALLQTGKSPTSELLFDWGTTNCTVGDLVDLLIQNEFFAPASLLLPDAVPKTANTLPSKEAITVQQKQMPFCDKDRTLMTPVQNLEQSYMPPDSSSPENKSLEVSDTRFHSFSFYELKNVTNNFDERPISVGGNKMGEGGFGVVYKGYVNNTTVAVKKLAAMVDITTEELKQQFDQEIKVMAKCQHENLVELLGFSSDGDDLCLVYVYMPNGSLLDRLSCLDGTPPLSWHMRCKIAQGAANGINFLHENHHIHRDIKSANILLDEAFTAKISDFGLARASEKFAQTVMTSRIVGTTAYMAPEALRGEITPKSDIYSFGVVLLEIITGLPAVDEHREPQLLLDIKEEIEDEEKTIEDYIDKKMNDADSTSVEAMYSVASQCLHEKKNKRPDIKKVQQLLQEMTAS
The format is cell-based. More on the design: endogenous in cells; host or cells: OCI-LY3. As to conditions: read-out: OCI-LY3 DC50; OCI-LY3 cells.

For `Cn1c(=O)n(C2CCC(=O)NC2=O)c2cccc(C#CCCN3CCC4(CC3)CC(n3cc(NC(=O)c5cnn6ccc(N7C[C@H]8C[C@@H]7CO8)nc56)c(C(F)F)n3)C4)c21` (stereo partly shown) [Example 22], the DC50 is 1.3 nM.
